Data set [1] deals with T1, NaV1.7 (Homo sapiens, UniProt Q15858).
T1 construct: expressed in transfected cells; host or cells: unnamed tetracycline-inducible cell line, kept under hygromycin and blasticidin selection
The experiment in a line: Nav1.7 intracellular inhibition (internal block), whole cell patch clamp. The class given is cell-based. As to conditions: % inhibition at 1 μM test concentration, compound in internal solution, 5 Hz stimulation. As to the method: (§1) Representative compounds of the invention were synthesized according to the described methods and tested for the ability to inhibit voltage-gated sodium channels.
(§2) NaV1.7 was expressed upon induction with tetracycline. Cells were cultured in DMEM containing 10% dialyzed Fetal Bovine Serum (VWR, Radnor, PA), 1% Glutamax (VWR, Radnor, PA), 1% Penicillin-Streptomycin (VWR, Radnor, PA), 100 mg/L Hygromycin (Thermo Fisher Scientific, Waltham, MA and 5 mg/L Blasticidin (Alfa Aesar, Haverhill, MA). Cells were grown and maintained at 37° C. in a humidified environment containing 10% CO2 in air. Cells were detached from the culture flask for passage and harvested using 0.05% Trypsin-EDTA (Thermo Fisher Scientific, Waltham, MA). To induce NaV1.7, cells were induced with tetracycline ([…], IBI Scientific, Peosta, IA) the day before recording and plated onto 24-well plates. Cells were washed with DPBS (VWR, Radnor, PA), trypsinized and then triturated five times in 10 mL of growth media to break apart cell aggregates. For one 24-well plate, 2 mL of cell suspension was mixed with 23 mL of fresh growth media and […] tetracycline added. 1 ml of mixed media with cells was then added to each well of a 24-well plate, with a 12 mm coverslip already placed in the bottom of the well. Cells were then incubated in 37° C. and 10% CO2 overnight.
(§3) The intracellular solution contained the following (in mM) CsCl 135, NaCl 10, EGTA 10, HEPES 10, MgCl2 2, adjusted to pH 7.2 with CsOH. The external solution was a normal Ringer solution containing (in mM) NaCl 155, HEPES 10, glucose 10, KCl 3.5, CaCl2) 1.5, MgCl2 1 adjusted to pH 7.4 with NaOH. CsCl is from Alfa Aesar, Haverhill, MA. All other chemicals are from Sigma-Aldrich, St. Louis, MO. In order to test the degree of internal block by test compounds the compounds were dissolved in internal solution at the indicated test concentration. […] In order to test the degree of external block by test compounds the compounds were dissolved in external solution at the indicated test concentration.
(§4) 18-24 hours after cells were induced with tetracycline, coverslips were placed into a chamber filled with Normal Ringer solution at room temperature and the chamber placed on a microscope. Pipettes were pulled from borosilicate glass on a P97 puller (Sutter Instrument, Novato, CA) and polished with a MF-830 Microforge (Narishige International USA, Inc, Amityville, NY) to have a resistance of 1.5-2.5 MΩ when filled with CsCl internal solution at room temperature. Healthy cells (those that are round and translucent with no visible blemishes) were chosen for seal formation. A seal was formed between the pipette and the cell, and a brief pulse of suction was used to “break in” and establish the whole-cell configuration. The membrane potential was held at −100 mV before the voltage protocol began. Only cells with series resistance between 1.5-5 MΩ were retained for analysis. The voltage protocol was as follows: Cells were held at −100 mV for 12 ms followed by a hyperpolarizing step to −105 mV for 12 ms to monitor the leak. Cells were then stepped back to −100 mV for 40 ms. Cells were then depolarized to −20 mV for 10 ms and then returned to −100 mV for 26 ms.
Once the recording was started, the voltage protocol was run at 30 second intervals for 5 minutes to get a stable baseline. This was followed by four 30-second periods of 5 Hz stimulation of the same voltage protocol separated by 1 minute of rest which was then followed by 0.33 Hz stimulation after the last train. Currents were recorded using PatchMaster software with Heka EPC10 (HEKA Electronics, Lambrecht, Germany). Only cells with inward current amplitudes at −20 mV between 400 pA and 4 nA were accepted. In addition, cells having leak currents greater than 10% of their current amplitudes were discarded. […]
A general note: The patch-clamp technique gives a direct electrical read-out from membranes.

For data set [2], the target named is T1, NaV1.7. The experiment in a line: Nav1.7 extracellular inhibition (external block), whole cell patch clamp. The class given is cell-based. The conditions noted are these: compound in external solution for 5 minutes, 5 Hz stimulation; for inhibition at 10 µM: % inhibition at 10 μM test concentration; for inhibition at 30 µM: % inhibition at 30 μM test concentration. As to the method:
as §1, §2, §3, §4
Once the recording was started, the voltage protocol was run at 30 second intervals for 5 minutes to get a stable baseline. […] Currents were recorded using PatchMaster software with Heka EPC10 (HEKA Electronics, Lambrecht, Germany). […]

The nature of data set [3]: PAMPA membrane permeability assay. The class given is in vitro ADME. As to conditions: pH 7.4 buffer, GIT lipid, 4 hours incubation. On the procedure: The PAMPA assay (pION, Inc., Woburn MA) was used to determine the ability of compounds of the invention to cross an artificial lipid membrane by passive diffusion. Test compounds were dissolved in DMSO (10 mM) and diluted 200-fold in buffer (pION Inc., pH 7.4) to provide 50 uM stock solutions. Buffer (150 μL) was added to a UV blank plate and stock solutions (150 μL) were transferred to a UV reference plate. The blank and reference spectrum were read using a spectrophotometer. Stock solutions (200 μL) were added to the donor plate of the PAMPA sandwich plate and an accept plate painted with GIT lipid (pION Inc, 5 μL) was placed on top. Buffer (200 μL) was added to the acceptor plate and the PAMPA sandwich plate was incubated for 4 hours. Aliquots (150 μL) from the acceptor plate were added to a UV plate and read as acceptor spectrum. Aliquots (150 μL) of the donor solutions were added to a UV analysis plate and read as donor spectrum. The permeability coefficient of test compounds was calculated using PAMPA Explorer™ software (version 3.5.0.4) based on the AUC of the reference plate, the donor plate, and the acceptor plate.

Nine compounds from patent publication US12195428B2, “Charged ion channel blockers and methods for use” (Nocion Therapeutics, Inc., priority 2019, dated 2025) can be followed below.

The structures appear in SMILES notation. Bounds are passed on as bounds.

T1 sequence (Q15858 whole entry): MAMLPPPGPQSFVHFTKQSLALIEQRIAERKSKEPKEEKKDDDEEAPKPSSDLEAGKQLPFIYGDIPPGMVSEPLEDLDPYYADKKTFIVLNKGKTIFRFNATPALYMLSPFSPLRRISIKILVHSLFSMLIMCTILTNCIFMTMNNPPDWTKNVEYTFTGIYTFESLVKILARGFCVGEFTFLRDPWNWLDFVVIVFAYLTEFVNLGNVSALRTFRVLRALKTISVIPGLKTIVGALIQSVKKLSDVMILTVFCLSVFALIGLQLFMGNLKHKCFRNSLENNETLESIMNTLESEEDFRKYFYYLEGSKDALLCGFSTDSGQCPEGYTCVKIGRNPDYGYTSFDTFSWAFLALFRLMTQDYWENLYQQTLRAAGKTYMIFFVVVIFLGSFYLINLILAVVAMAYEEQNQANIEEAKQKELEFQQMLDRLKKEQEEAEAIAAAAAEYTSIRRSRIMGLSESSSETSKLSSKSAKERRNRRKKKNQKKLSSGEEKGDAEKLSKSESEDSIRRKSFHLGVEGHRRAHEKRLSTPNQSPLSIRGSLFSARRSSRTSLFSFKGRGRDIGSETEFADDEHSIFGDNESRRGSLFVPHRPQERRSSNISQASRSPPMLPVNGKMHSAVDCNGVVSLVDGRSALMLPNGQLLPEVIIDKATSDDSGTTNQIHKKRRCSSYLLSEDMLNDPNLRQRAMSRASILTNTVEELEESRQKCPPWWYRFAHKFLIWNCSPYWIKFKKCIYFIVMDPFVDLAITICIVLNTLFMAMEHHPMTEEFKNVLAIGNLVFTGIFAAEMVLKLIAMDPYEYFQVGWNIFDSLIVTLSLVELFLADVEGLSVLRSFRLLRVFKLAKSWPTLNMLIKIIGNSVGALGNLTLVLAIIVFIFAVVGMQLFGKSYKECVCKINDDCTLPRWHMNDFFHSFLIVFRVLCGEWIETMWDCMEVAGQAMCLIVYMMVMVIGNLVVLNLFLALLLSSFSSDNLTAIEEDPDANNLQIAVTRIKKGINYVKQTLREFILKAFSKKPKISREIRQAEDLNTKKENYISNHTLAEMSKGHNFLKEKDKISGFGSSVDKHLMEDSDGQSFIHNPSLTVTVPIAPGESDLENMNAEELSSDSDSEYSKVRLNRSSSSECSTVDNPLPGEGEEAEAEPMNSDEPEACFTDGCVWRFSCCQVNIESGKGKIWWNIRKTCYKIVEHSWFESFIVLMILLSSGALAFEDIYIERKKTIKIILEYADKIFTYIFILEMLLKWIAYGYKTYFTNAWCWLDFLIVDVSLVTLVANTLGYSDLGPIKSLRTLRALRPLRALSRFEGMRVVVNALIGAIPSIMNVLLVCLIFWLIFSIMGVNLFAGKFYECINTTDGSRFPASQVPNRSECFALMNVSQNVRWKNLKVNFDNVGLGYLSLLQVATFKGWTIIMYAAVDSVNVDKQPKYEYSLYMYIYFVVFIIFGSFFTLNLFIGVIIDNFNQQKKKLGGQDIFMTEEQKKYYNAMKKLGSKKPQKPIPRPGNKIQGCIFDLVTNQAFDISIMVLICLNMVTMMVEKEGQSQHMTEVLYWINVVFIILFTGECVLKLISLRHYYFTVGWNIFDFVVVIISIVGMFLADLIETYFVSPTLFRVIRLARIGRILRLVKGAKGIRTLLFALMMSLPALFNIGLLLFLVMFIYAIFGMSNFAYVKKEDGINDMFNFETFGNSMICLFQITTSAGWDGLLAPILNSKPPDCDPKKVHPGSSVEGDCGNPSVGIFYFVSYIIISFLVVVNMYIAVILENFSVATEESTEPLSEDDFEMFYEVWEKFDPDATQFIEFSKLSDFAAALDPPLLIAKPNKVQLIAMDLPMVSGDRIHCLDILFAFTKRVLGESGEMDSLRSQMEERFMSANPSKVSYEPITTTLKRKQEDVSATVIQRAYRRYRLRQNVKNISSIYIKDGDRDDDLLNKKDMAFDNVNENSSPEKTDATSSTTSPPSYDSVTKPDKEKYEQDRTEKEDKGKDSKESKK

Broadly, the inhibition is the drop in the measured response relative to a control, in per cent. Read a low inhibition as a response near the control. Turning to `CC[N+]1(CC(=O)Nc2c(C)cccc2C)CCCC(c2ccccc2)C1` (stereo not drawn) [Compound 1A, 1-(2-((2,6-dimethylphenyl)amino)-2-oxoethyl)-1-ethyl-3-phenylpiperidin-1-ium iodide], the inhibition at 1 µM in data set [1] is more than 90%.
With `CC[N+]1(CC(=O)Nc2c(C)cccc2C)CCC[C@@H](c2ccccc2)C1.[I-]` (stereo partly drawn) [Compound 2A], in data set [2], the inhibition at 10 µM was less than 30%. Further, the inhibition at 1 µM in data set [1] was more than 90%. Moreover, in data set [3], the “PAMPA (10^−6 cm/s)” value was “+ (“+” (<0.1 10^−6 cm/s))”.
Regarding `CC[N+]1(CC(=O)Nc2c(C)cccc2C)CCC[C@H](c2ccccc2)C1.[I-]` (stereo partly drawn) [Compound 3A], the inhibition at 10 µM in data set [2] lay within 30 to 70%. The same compound showed an inhibition at 1 µM in data set [1] of more than 90%. The “PAMPA (10^−6 cm/s)” value in data set [3] was “+ (“+” (<0.1 10^−6 cm/s))”.
As to `Cc1cccc(C)c1NC(=O)C[N+]1(C)CCCC(c2ccccc2)C1.[I-]` (stereo not drawn) [Compound 4A], the inhibition at 1 µM in data set [1] was 70 to 90%. The “PAMPA (10^−6 cm/s)” value in data set [3] was “+ (“+” (<0.1 10^−6 cm/s))”.
With `CC[N+]1(CC(=O)Nc2c(C)cccc2C)CCCCC1c1ccccc1` (stereo not drawn) [Compound 5A], in data set [2], the inhibition at 30 µM was in the range of 30 to 70%. In addition, in data set [1], the inhibition at 1 µM lay within 70 to 90%. For the same compound, the “PAMPA (10^−6 cm/s)” value in data set [3] was “+ (“+” (<0.1 10^−6 cm/s))”.
For `CCC[N+]1(CC(=O)Nc2c(C)cccc2C)CCCC(c2ccccc2)C1` (stereo not drawn) [Compound 6A], the inhibition at 10 µM in data set [2] was in the range of 30 to 70%. In data set [1], this compound showed an inhibition at 1 µM of more than 90%. The “PAMPA (10^−6 cm/s)” value in data set [3] is listed as “+ (“+” (<0.1 10^−6 cm/s))”.
In turn, `Cc1cccc(C)c1NC(=O)C[N+]1(C)CCCCC1c1ccccc1.[I-]` (stereo not drawn) [Compound 8A] displayed an inhibition at 30 µM in data set [2] of 30 to 70%. Also, the inhibition at 1 µM in data set [1] lay within 30 to 70%. Moreover, in data set [3], the “PAMPA (10^−6 cm/s)” value was “+ (“+” (<0.1 10^−6 cm/s))”.
On to `COC(=O)C[N+]1(CC(=O)Nc2c(C)cccc2C)CCCCC1c1ccccc1` (stereo not drawn) [Compound 9A], for which the inhibition at 1 µM in data set [1] fell in the range of 30 to 70%. Moreover, the “PAMPA (10^−6 cm/s)” value in data set [3] was “+ (“+” (<0.1 10^−6 cm/s))”.
As to `CCC[N+]1(CC(=O)Nc2c(C)cccc2C)CCCCC1c1ccccc1` (stereo not drawn) [Compound 10A], in data set [1], the inhibition at 1 µM lay in the range of 30 to 70%.
